The values that follow come from ChEMBL document CHEMBL3351689, “The discovery of indole full agonists of the neurotensin receptor 1 (NTSR1)” (Bioorg Med Chem Lett, 2014).

For the first experiment, the target named is T1, Neurotensin receptor type 1 (Homo sapiens, UniProt P30989). Put plainly: Agonist activity at NTSR1 (unknown origin) expressed in CHO cells assessed as potentiation of NT(8-13) peptide-induced change in intracellular Ca2+ level preincubated for 45 mins by FLIPR assay. Type of experiment: functional, cell-based.
T1 sequence (P30989 whole entry): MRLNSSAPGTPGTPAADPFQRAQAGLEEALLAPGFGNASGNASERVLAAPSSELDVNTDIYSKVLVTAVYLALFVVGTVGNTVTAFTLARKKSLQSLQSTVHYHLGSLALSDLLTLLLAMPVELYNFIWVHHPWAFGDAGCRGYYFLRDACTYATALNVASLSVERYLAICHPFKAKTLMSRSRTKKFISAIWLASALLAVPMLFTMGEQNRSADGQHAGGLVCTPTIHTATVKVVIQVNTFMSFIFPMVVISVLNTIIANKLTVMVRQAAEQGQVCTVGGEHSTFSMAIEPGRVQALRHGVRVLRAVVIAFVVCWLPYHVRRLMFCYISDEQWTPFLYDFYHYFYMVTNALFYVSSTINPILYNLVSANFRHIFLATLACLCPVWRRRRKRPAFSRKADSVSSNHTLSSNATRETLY
For `CC(C)[C@H](NC(=O)Cn1ccc2cc(-c3cnc4ccccc4c3)ccc21)C(=O)O`, the concentration for a half-maximal effect (EC50) was greater than 100 µM.
For `CC(C)C[C@H](NC(=O)Cn1ccc2cc(N)ccc21)C(=O)O`, the EC50 is 25.8 µM.
On the same count and under the same terms, as for `CC(C)C[C@H](NC(=O)Cn1ccc2cc(-c3cncc4ccccc34)ccc21)C(=O)O`, the figure is 3.24 µM; as for `CC(C)C[C@H](NC(=O)Cn1ccc2cc(-c3ccccc3)ccc21)C(=O)O`, 9.44 µM; as for `COc1cccc(CC(=O)Nc2ccc3c(ccn3CC(=O)N[C@@H](CC(C)C)C(=O)O)c2)c1`, 24.2 µM.
On to `CC(C)[C@H](NC(=O)Cn1ccc2cc(-c3cccc4ccccc34)ccc21)C(=O)O`, for which the EC50 is greater than 100 µM.
Same read-out and setting: as for `CC(C)C[C@H](NC(=O)Cn1ccc2cc(Nc3ccc4cnccc4c3)ccc21)C(=O)O`, the figure is 7.72 µM; as for `CC(C)C[C@H](NC(=O)Cn1ccc2cc(-c3cnc4ccccc4c3)ccc21)c1nn[nH]n1`, 5.17 µM; as for `COC(=O)[C@H](CC(C)C)NC(=O)Cn1ccc2cc(-c3cnc4ccccc4c3)ccc21`, greater than 100 µM.
Regarding `O=C(Cn1ccc2cc(-c3cnc4ccccc4c3)ccc21)N[C@@H](Cc1ccccc1)C(=O)O`, the EC50 came to 4.33 µM.
The same measure, in the same setting: as for `COC(=O)[C@@H](CC(C)C)NC(=O)Cn1ccc2cc(-c3cccc4ccccc34)ccc21`, the figure is greater than 100 µM; as for `CC(C)C[C@H](NC(=O)Cn1ccc2cc(Br)ccc21)C(=O)O`, 9.99 µM; as for `CC(C)C[C@@H](NC(=O)Cn1ccc2cc(-c3cnc4ccccc4c3)ccc21)C(=O)O`, greater than 100 µM.
On the same count and under the same terms, as for `CC(C)C[C@H](NC(=O)Cn1ccc2ccccc21)C(=O)O`, the figure is 6.65 µM; as for `CC(C)C[C@H](NC(=O)Cn1ccc2cc(N(Cc3ccnc4ccccc34)Cc3ccnc4ccccc34)ccc21)C(=O)O`, 2.12 µM.
The same measure, in the same setting: the result for `CC(C)C[C@H](NC(=O)Cn1ccc2cc(-c3cccc4ccccc34)ccc21)C(=O)O` reads 3.26 µM; that for `CC(C)C[C@@H](CO)NC(=O)Cn1ccc2cc(-c3cnc4ccccc4c3)ccc21`, greater than 100 µM; that for `COC(=O)[C@H](CC(C)C)NC(=O)Cn1ccc2cc(-c3cccc4ccccc34)ccc21`, greater than 100 µM.
Turning to `CC(C)C[C@H](NC(=O)Cn1ccc2cc(NC(=O)c3ccnc4ccccc34)ccc21)C(=O)O`, the half-maximal effective concentration (EC50) was 55.1 µM.
Still for that read-out and setting: as for `CC(C)C[C@H](NC(=O)Cn1ccc2ccc(-c3cnc4ccccc4c3)cc21)C(=O)O`, the figure is 3.28 µM; as for `COC(=O)[C@@H](CC(C)C)NC(=O)Cn1ccc2cc(-c3cnc4ccccc4c3)ccc21`, greater than 100 µM.
Consider `CC(C)C[C@H](NC(=O)Cn1ccc2cc(-c3cccnc3)ccc21)C(=O)O`, for which the 50% effective concentration (EC50) is 15.4 µM.
For `CC(C)C[C@H](NC(=O)Cn1ccc2cc(-c3cccc4cnccc34)ccc21)C(=O)O`, the EC50 came out at 4.96 µM.
In the case of `CC(C)C[C@@H](NC(=O)Cn1ccc2cc(-c3cccc4ccccc34)ccc21)C(=O)O`, the EC50 is greater than 100 µM.
The same measure, in the same setting: as for `CC(C)C[C@H](NC(=O)Cn1ccc2cc(NS(=O)(=O)c3cccc4ccccc34)ccc21)C(=O)O`, the figure is 9.39 µM; as for `CC(C)C[C@H](NC(=O)Cn1ccc2ccc(-c3cncc4ccccc34)cc21)C(=O)O`, 7.46 µM.
The same measure, in the same setting: the result for `CC(C)C[C@H](NC(=O)Cn1ccc2cc(NS(=O)(=O)c3cccc4cccnc34)ccc21)C(=O)O` reads 8.99 µM.
On to `CC(C)C[C@H](NC(=O)Cn1ccc2ccc(-c3cccc4ccccc34)cc21)C(=O)O`, for which the EC50 came to 2.85 µM.
Take `C[C@H](NC(=O)Cn1ccc2cc(-c3cnc4ccccc4c3)ccc21)C(=O)O`: the EC50 was greater than 100 µM.
Take `O=C(O)CNC(=O)Cn1ccc2cc(-c3cccc4ccccc34)ccc21`: the EC50 was greater than 100 µM.
With `CC(C)C[C@H](NC(=O)Cn1ccc2cc(-c3cnc4ccccc4c3)ccc21)C(=O)O`, the half-maximal effective concentration (EC50) was 2.05 µM.
Turning to `O=C(O)CNC(=O)Cn1ccc2cc(-c3cnc4ccccc4c3)ccc21`, the half-maximal effective concentration (EC50) is greater than 100 µM.

The target in the next experiment is T1, Neurotensin receptor type 1. Kind of experiment: Antagonist activity at NTSR1 (unknown origin) expressed in CHO cells assessed as inhibition of NT(8-13) peptide-induced change in intracellular Ca2+ level preincubated for 45 mins by FLIPR assay. Type of experiment: functional, cell-based.
As to `COc1cccc(OC)c1-c1cc(C(=O)NC2(C(=O)O)C3CC4CC(C3)CC2C4)nn1-c1ccc(C(=O)N(C)CCCN(C)C)cc1C(C)C` (centres undefined), the half-inhibitory concentration (IC50) was found to be 0.004 µM.
Take `COc1cccc(OC)c1-c1cc(C(=O)NC2(C(=O)O)C3CC4CC(C3)CC2C4)nn1-c1ccnc2cc(Cl)ccc12` (centres undefined) [REMINERTANT]: the 50% inhibitory concentration (IC50) was 0.082 µM.

As usually defined, the EC50 is the concentration needed to bring the measured effect to its halfway point. A word on the IC50: it is the concentration that gives 50% inhibition.
